According to ChEMBL document CHEMBL1157931 (Bioorg Med Chem, 2010):
Calls of active or inactive are those of the source. The calls are words filed in the database; no cut-off is given here.

Tests used:
[1] = biological target: T1, 5-hydroxytryptamine receptor 1A (Homo sapiens, UniProt P08908); assay: Displacement of [3H]8-OH-DPAT from 5HT1A receptor expressed in HEK293 cells after 2 hrs by liquid scintillation counting; type: cell-based
T1 sequence (P08908 whole entry): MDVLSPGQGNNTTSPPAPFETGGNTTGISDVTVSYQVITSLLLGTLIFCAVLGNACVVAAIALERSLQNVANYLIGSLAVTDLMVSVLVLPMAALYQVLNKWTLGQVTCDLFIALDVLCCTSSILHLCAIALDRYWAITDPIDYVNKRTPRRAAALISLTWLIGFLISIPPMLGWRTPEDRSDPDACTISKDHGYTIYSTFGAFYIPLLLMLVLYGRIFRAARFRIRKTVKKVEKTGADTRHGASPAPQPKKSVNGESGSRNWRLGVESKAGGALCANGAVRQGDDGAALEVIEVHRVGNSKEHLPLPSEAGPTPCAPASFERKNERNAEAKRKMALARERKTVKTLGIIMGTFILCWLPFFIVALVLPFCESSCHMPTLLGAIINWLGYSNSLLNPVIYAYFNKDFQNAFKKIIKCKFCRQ

[2] = biological target: T2, 5-hydroxytryptamine receptor 1A (Homo sapiens) (UniProt P08908); assay: Agonist activity at 5HT1A receptor expressed in HEK293 cells by [S35]GTPgammaS binding assay relative to 8-OH-DPAT; type: functional, cell-based; set-up: concentration or dose not given beside the values
T2 sequence (whole entry): T1 sequence (P08908 whole entry)

[3] = biological target: T2, 5-hydroxytryptamine receptor 1A (Homo sapiens); assay: Displacement of [3H]8-OH-DPAT from 5HT1A receptor expressed in HEK293 cells at 25 ug/ml after 2 hrs by liquid scintillation counting; type: cell-based
[4] = biological target: T2, 5-hydroxytryptamine receptor 1A (Homo sapiens); assay: Antagonist activity at 5HT1A receptor expressed in HEK293 cells assessed as inhibition of 8-OH-DPAT-induced [S35]GTPgammaS binding by scintillation counting; type: functional, cell-based
[5] = biological target: T2, 5-hydroxytryptamine receptor 1A (Homo sapiens); assay: Antagonist activity at 5HT1A receptor expressed in HEK293 cells assessed as inhibition of serotonin-induced [S35]GTPgammaS binding by scintillation counting; type: functional, cell-based
[6] = biological target: ATP-dependent translocase ABCB1 (Homo sapiens, UniProt P08183); assay: Inhibition of human MDR1 expressed in MDCK cells assessed as fluorescence activity at 30 uM after 1.5 hrs by rhodamine 123 efflux test; type: cell-based
[7] = tested on: Caco-2; assay: Cytotoxicity against human Caco-2 cells at 50 ug/ml; type: cell-based
[8] = tested on: Caco-2; assay: Permeability in human Caco-2 cells assessed as passive diffusion after 3 hrs by HPLC; type: ADME, cell-based; details: caco-2, 3 h
[9] = biological target: T2, 5-hydroxytryptamine receptor 1A (Homo sapiens); assay: Agonist activity at 5HT1A receptor expressed in HEK293 cells at >20 uM by [S35]GTPgammaS binding assay relative to 8-OH-DPAT; type: functional, cell-based

Sequence of ATP-dependent translocase ABCB1 (P08183 whole entry): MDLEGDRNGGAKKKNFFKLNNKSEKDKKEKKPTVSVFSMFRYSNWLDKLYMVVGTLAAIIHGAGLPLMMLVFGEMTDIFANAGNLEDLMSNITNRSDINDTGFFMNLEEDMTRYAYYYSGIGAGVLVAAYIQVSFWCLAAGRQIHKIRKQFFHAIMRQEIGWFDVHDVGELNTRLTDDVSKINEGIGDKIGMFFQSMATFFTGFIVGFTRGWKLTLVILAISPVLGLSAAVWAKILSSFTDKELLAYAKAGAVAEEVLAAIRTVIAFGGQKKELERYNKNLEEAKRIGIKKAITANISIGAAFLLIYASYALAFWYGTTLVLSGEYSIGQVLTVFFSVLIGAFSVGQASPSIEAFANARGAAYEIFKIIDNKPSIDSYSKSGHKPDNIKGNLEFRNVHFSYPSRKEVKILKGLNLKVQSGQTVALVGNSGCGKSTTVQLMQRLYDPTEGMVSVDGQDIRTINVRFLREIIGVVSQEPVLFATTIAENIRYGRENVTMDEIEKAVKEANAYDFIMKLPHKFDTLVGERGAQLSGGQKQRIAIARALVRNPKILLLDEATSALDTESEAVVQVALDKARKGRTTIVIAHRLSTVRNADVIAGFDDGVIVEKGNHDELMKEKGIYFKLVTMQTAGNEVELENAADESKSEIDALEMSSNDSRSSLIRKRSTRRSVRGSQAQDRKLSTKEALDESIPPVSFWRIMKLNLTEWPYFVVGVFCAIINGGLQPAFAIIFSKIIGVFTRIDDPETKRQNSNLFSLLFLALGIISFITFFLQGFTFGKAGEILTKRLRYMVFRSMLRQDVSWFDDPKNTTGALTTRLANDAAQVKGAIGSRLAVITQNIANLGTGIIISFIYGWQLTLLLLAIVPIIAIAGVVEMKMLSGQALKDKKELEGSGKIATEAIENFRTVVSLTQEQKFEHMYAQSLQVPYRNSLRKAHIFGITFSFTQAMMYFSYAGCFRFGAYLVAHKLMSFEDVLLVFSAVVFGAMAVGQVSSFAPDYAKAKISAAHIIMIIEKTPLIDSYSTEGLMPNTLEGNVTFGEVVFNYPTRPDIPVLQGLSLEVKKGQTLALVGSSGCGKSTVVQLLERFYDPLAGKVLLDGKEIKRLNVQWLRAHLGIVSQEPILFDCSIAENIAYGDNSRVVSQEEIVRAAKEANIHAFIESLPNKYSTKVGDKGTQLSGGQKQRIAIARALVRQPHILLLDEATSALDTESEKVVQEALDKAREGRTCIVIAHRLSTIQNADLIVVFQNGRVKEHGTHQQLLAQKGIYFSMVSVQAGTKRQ

Row | Compound | Ki [1] | Activity [2] | Activity [3] | Activity [4] | Activity [5] | inhibition (INH) [6] | Activity [7] | permeability [8] | Activity [9]
1 | CCCCCCCC(O)CCc1ccc(O)c(OC)c1 (configuration not stated) | 9.53 µM | > 10% |  |  |  |  |  |  | 
2 | CCCCCCC/C(O)=C/C(=O)/C=C/c1ccc(O)c(OC)c1 | 6.54 µM |  | > 50% | inactive | inactive | Not Active |  |  | 
3 | NCCc1c[nH]c2ccc(O)cc12 |  | 100% |  |  |  |  |  |  | 
4 | CCCCC[C@H](O)CC(=O)CCc1ccc(O)c(OC)c1 [GINGEROL] | > 100 µM |  | > 50% | inactive | inactive | Not Active | Non-toxic | 10% | 
5 | CC[C@]1(O)C[C@@H]2CN(CCc3c([nH]c4ccccc34)[C@@](C(=O)OC)(c3cc4c(cc3OC)N(C)[C@H]3[C@@](O)(C(=O)OC)[C@H](OC(C)=O)[C@]5(CC)C=CCN6CC[C@]43[C@@H]65)C2)C1 [VINBLASTINE] |  |  |  |  |  | Active |  |  | 
6 | CCCCC/C=C/C(=O)CCc1ccc(O)c(OC)c1 [SHOGAOL] | 18 µM |  | > 50% | inactive | inactive | Not Active |  |  | 
7 | CCCCCCCCC/C(O)=C/C(=O)/C=C/c1ccc(O)c(OC)c1 | 3.59 µM |  | > 50% | inactive | inactive | Not Active |  |  | 
8 | CCCCCCC[C@H](O)CC(=O)CCc1ccc(O)c(OC)c1 | 11.7 µM |  | > 50% | inactive | inactive | Not Active | Non-toxic | 10% | 
9 | CCCCCCCCC/C=C/C(=O)CCc1ccc(O)c(OC)c1 | 5.84 µM | > 20% | > 50% | inactive | inactive | Not Active | Non-toxic | 10% | inactive
10 | CCCCCCCCC[C@H](O)CC(=O)CCc1ccc(O)c(OC)c1 | 3.74 µM | > 10% | > 50% | inactive | inactive | Not Active | Non-toxic | 10% | 
11 | CCCCCC(=O)/C=C(O)/C=C/c1ccc(O)c(OC)c1 | 6.53 µM | > 20% | > 50% | inactive | inactive | Not Active |  |  | inactive
12 | CCCCCCC/C=C/C(=O)CCc1ccc(O)c(OC)c1 | 13 µM |  | > 50% | inactive | inactive | Not Active |  |  | 
